The values below come from patent publication US20230321123A1, “INHIBITORS OF PSEUDOMONAS AERUGINOSA VIRULENCE FACTOR LasB” (Helmholtz-Zentrum Für Infektionsforschung GmbH, priority 2020, published 2023).

What is called IC50 is the concentration that inhibits the measured activity by half. A word on the inhibition: it is the relative decrease from the control value, in per cent. The term melting point denotes the temperature, or range, at which the solid turns liquid.

Molecules are shown by their SMILES.

One series in a line: Cytotoxicity HepG2. In kind it is cell-based. The note with it: human; HepG2. How it is done: The compounds of examples 1 and 5 were not toxic against the cell lines HepG2, HEK293 and A549 (Table 5). Additionally, the inhibitory effect against P. aeruginosa PA14 was evaluated to exclude an antibacterial effect of the compounds of the present invention. This is important as it was the aim to target virulence and not viability of the bacteria. […]

The target of the next series is T1, HDAC-8 (Homo sapiens, UniProt Q9BY41).
T1 sequence (Q9BY41 1-377): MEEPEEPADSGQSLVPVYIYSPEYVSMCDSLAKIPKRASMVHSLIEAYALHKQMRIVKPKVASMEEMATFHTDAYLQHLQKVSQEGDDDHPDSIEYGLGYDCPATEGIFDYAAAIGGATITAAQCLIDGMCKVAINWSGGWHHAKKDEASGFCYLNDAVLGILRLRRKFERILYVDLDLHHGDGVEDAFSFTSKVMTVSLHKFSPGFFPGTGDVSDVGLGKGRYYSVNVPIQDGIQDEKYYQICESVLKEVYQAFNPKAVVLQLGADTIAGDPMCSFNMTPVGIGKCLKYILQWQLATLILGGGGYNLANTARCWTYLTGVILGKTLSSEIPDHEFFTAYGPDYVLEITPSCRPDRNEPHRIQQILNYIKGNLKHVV
The series can be described thus: Selectivity against human off-targets: HDAC-8. The note with it: read-out: IC50 HDAC-8. In kind it is biochemical. The source says:
(§1) The inhibition of zinc-containing human enzymes is described frequently for LasB inhibitors and poses a serious difficulty in the development of selective compounds. Particularly, the inhibition of matrix metalloproteases (MMPs) should be avoided. To further investigate this issue, three derivatives (the compounds of examples 1, 5 and 8) have been tested for their selectivity against several human off-targets, including six MMPs, ADAM17 (TACE), HDAC-3 and HDAC-8 (Table 4). The selectivity of the compounds is particularly high for MMPs and HDACs, whereas the inhibition of ADAM17 was considerably stronger.

The next series has as its target hERG potassium channel (Homo sapiens, UniProt Q12809). The series can be described thus: hERG inhibition. The class given is biochemical. An excerpt: (§2) As the compound of example 2 has shown an impressive activity in the in vitro LasB inhibition assay, high selectivity over a broad spectrum of human enzymes and no signs of cytotoxicity in vitro, it has been subjected to a more advanced safety screening (Table 9).

In a further series the target is HDAC-3 (Homo sapiens, UniProt O15379). The series can be described thus: Selectivity against human off-targets: HDAC-3. The class given is biochemical. The note with it: read-out: IC50 HDAC-3.
Chain of HDAC-3 (O15379 whole entry): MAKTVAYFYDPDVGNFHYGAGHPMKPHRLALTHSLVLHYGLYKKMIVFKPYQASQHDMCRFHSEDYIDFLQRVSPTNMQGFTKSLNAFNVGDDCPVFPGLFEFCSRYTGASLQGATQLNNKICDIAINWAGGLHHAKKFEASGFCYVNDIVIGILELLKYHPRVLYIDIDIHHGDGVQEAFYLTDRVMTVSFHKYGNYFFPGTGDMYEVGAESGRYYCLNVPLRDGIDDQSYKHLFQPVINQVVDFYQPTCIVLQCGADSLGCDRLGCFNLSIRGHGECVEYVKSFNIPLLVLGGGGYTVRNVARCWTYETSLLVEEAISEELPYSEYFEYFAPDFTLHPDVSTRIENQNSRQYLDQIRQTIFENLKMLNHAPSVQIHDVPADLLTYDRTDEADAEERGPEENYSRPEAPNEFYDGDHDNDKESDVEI
Chain of HDAC-3 (Q9Y618 395-489 partner limits assumed): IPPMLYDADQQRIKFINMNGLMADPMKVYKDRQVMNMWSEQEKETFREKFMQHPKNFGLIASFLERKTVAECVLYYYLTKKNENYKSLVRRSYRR
Source text: as §1

A further series deals with T2, MMP-2 (Homo sapiens, UniProt P08253).
T2 sequence (P08253 110-660): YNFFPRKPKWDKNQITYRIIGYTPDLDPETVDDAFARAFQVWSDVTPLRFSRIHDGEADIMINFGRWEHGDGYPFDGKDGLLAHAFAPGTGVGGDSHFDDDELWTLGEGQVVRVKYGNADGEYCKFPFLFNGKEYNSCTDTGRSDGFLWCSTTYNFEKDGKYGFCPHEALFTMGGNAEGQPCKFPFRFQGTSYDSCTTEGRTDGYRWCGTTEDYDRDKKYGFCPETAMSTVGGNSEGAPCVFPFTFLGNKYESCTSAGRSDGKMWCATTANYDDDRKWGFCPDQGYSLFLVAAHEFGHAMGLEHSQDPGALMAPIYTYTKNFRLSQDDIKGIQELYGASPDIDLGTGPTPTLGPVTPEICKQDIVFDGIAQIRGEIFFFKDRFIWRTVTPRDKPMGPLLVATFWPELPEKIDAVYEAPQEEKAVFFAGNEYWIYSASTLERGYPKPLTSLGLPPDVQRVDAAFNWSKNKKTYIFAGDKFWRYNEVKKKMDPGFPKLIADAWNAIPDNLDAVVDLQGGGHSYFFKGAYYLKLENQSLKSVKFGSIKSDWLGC
Put plainly: Selectivity against human off-targets: MMP-2. The note with it: read-out: Inhibition [%] MMP-2. The class given is biochemical.

Another series addresses CYP2C9 (Homo sapiens, UniProt P11712). Put plainly: CYP inhibition CYP2C9. In kind it is in vitro ADME.
Source text: as §2

The target in the next series is T3, MMP-1 (Homo sapiens, UniProt P03956).
T3 sequence (P03956 100-469): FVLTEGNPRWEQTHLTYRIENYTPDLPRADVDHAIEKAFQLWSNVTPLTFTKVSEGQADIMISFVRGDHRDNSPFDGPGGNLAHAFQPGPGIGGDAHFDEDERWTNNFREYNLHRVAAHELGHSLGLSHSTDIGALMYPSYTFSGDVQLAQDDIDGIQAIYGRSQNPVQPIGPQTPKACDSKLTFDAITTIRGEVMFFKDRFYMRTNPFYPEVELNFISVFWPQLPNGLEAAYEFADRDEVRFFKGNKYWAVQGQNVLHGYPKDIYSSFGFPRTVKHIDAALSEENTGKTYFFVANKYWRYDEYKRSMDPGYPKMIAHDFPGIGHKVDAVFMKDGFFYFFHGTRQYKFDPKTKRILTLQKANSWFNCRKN
The series can be described thus: Selectivity against human off-targets: MMP-1. The class given is biochemical. The note with it: read-out: Inhibition [%] MMP-1.

The target of another series is LasB (Pseudomonas aeruginosa, UniProt Q02RJ6). The series can be described thus: biochemical. More on the design: species or system P. aeruginosa. The note with it: IC50 against LasB.
Chain of LasB (Q02RJ6 198-498): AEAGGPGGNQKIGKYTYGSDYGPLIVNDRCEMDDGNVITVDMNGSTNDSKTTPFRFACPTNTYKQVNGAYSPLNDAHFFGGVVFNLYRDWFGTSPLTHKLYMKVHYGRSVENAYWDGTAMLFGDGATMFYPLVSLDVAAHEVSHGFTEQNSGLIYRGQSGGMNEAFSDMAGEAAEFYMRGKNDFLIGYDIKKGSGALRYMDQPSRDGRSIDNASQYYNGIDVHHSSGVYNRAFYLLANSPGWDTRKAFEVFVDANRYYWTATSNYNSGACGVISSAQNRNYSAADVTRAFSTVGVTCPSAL
Another series concerns the target MMP-14 (Homo sapiens, UniProt P50281). The series can be described thus: Selectivity against human off-targets: MMP-14. The note with it: read-out: Inhibition [%] MMP-14. The class given is biochemical.
Source text: as §1

A short description of series [1]: mini-Ames reverse mutation assay. In kind it is cell-based. The note with it: up to 125 μg/mL.
Source text: as §2

For another series, the target named is CYP2C19 (Homo sapiens, UniProt P33261). Put plainly: CYP inhibition CYP2C19. The class given is in vitro ADME.
Chain of CYP2C19 (P33261 whole entry): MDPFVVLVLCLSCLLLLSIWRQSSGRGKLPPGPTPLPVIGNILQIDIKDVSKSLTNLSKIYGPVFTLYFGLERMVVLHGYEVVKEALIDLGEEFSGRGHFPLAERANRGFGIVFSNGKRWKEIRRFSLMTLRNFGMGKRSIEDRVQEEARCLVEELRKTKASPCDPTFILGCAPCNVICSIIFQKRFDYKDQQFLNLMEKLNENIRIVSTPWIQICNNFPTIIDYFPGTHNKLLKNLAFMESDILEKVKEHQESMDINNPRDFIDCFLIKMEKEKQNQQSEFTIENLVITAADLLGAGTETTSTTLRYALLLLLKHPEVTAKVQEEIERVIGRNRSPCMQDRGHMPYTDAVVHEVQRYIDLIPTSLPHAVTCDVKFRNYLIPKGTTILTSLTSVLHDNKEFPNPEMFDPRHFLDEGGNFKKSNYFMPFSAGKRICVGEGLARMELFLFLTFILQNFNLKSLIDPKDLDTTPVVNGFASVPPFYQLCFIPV
Source text: as §2

The target in another series is ADAM17 (TACE) (Homo sapiens, UniProt P78536). Put plainly: Selectivity against human off-targets: ADAM17 (TACE). The note with it: read-out: IC50 ADAM17 (TACE). In kind it is biochemical.
Chain of ADAM17 (TACE) (P78536 215-824): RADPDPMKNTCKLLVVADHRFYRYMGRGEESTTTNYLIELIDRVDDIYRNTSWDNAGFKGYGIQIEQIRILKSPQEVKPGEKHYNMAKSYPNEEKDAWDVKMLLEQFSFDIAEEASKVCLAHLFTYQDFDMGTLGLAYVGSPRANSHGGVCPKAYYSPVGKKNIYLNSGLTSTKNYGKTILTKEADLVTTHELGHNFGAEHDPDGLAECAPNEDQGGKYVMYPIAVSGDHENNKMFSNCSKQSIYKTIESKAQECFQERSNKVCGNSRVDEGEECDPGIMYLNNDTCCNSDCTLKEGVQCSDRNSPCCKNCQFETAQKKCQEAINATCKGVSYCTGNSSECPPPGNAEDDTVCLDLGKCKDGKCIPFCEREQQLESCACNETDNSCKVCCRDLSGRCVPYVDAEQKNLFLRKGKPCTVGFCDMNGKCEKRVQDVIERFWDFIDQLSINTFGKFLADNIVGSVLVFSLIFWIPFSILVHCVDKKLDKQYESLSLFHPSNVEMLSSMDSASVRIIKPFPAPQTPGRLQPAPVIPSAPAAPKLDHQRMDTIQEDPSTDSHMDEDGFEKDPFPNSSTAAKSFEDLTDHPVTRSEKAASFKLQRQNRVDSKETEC

Chain of CYP2C9 (P11712 whole entry): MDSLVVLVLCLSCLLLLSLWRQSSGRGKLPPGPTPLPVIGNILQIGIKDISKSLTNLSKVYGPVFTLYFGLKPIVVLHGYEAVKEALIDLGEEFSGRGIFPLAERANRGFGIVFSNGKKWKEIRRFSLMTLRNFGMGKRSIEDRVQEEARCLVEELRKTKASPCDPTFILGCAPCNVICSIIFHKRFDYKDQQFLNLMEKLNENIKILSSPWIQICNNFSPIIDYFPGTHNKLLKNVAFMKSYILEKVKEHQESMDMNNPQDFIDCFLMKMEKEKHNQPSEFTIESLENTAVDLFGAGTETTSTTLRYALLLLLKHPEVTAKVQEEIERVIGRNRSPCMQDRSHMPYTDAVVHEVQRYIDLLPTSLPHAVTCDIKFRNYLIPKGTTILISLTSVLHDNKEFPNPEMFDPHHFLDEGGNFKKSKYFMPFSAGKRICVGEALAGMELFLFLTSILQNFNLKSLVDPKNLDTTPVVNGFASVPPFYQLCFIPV
Chain of hERG potassium channel (Q12809 whole entry): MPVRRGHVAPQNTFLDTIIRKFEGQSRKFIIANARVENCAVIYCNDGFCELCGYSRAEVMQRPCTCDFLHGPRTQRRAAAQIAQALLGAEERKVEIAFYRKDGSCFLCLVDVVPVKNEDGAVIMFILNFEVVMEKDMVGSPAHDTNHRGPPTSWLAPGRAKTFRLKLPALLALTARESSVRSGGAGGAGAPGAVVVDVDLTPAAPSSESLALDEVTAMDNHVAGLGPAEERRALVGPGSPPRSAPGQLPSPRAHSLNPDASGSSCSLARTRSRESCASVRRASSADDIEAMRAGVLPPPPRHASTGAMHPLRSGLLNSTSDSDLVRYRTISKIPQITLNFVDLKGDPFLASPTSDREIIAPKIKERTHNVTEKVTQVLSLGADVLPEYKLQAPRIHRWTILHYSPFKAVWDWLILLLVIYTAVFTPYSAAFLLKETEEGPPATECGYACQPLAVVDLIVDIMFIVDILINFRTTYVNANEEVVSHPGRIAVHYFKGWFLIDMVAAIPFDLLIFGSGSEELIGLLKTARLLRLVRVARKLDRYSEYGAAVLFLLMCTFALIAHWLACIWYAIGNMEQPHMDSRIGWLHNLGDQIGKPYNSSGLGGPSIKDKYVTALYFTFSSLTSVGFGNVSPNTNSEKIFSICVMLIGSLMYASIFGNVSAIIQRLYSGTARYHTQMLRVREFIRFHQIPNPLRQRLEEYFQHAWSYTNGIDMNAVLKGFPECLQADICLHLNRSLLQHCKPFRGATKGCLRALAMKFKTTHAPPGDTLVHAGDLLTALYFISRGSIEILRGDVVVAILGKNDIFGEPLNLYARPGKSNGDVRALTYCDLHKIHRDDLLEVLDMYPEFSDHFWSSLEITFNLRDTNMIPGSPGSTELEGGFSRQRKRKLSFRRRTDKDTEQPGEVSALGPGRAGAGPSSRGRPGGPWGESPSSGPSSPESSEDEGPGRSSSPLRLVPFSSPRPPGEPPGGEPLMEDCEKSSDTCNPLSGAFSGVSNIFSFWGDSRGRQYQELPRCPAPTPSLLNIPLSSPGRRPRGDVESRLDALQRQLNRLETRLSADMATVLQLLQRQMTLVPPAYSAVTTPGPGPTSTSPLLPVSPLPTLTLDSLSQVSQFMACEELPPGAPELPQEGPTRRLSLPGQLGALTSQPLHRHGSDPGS

On to `Cc1ccc(NC(=O)C(S)CC(C)C)cc1` (stereo not shown) [Example 2, 2-Mercapto-4-methyl-N-(p-tolyl)pentanamide], for which the melting point is 90 °C. Also, in the series “Cytotoxicity HepG2”, the half-inhibitory concentration (IC50) was greater than 100 µM. On HDAC-8, the IC50 was greater than 100 µM. Further, the concentration for half-maximal inhibition (IC50) on hERG potassium channel is greater than 10 µM. Also, on HDAC-3, the IC50 was greater than 100 µM. The inhibition at 100 µM on MMP-2 is less than 10%. Moreover, the half-inhibitory concentration (IC50) against CYP2C9 is greater than 25 µM. Moreover, the inhibition at 100 µM at MMP-1 is less than 10%. The compound further returned an IC50 on LasB of 0.4 ± 0.13 µM. Further, the inhibition at 100 µM on MMP-14 is less than 10%. The Mini-Ames genotoxicity entry in series [1] is “no genotoxicity and No”. 1 µM corresponded to half-maximal inhibition against CYP2C19 (IC50). For the same compound, on ADAM17 (TACE), the IC50 was 4.5 ± 1.8 µM.
